From patent publication US8216619B2, “Stable and bioavailable compositions of isomers of carotenoids for skin and hair” (Indena S.p.A., priority 2006, dated 2012)

Test: Stability of pure lycopene isomers in n-hexane during storage at room temperature
Type: physicochemical
Conditions: for concentration (% of total isomers) 5-Z / concentration (% of total isomers) 9-Z / concentration (% of total isomers) 13-Z / concentration (% of total isomers) all E / concentration (% of total isomers) x-Z: n-hexane, room temperature, absence of light
Description: Pure 5-Z, 9-Z, 13-Z and all-E lycopene were isolated from isomerised tomato oleoresin (submitted to 1 hour heating), by collecting the fractions containing the corresponding peaks after HPLC separation (see below the experimental conditions). Peaks were collected during two consecutive HPLC runs and the corresponding fractions were pooled.
Lycopene isomer profiles were determined by normal phase HPLC according to the method described by Schierle et al. (Schierle, J., Bretzel, W., Bühler, I., Faccin, N., Hess, D., Steiner, K., Schuep, W. (1997). Food. Chem. 59: 459). Samples of isomerized oleoresins were dissolved in n-hexane containing 50 ppm BHT and spun at maximum speed in an Eppendorf Lab centrifuge. The resulting supernatants were immediately analyzed by HPLC. The HPLC system used was a 1100 series Hewlett-Packard model equipped with an ultraviolet-visible photodiode array detector. Data were simultaneously acquired at 470 nm, 464 nm, 346 nm and 294 nm. Samples (10 μL) were separated using a combination of three Nucleosil 300-5 columns (4 mm internal diameter×250 mm length, Macherey-Nagel). […] Flow rate was 0.8 mL/min. Lycopene Z-isomers were identified according to literature data.
Amounts of lycopene isomers were calculated based on surface areas of the HPLC peaks using the same extinction coefficient as the all-E lycopene. Therefore, the lycopene concentration in products containing Z-isomers is slightly underestimated since it is recognized that the extinction coefficients of Z-isomers are lower than that of the all-E isomer.
Stability of lycopene isomers was investigated both in n-hexane and in a tomato oleoresin isomerized by 4 hour heating in ethyl acetate. For this purpose, pure lycopene isomers were stored for 33 days in n-hexane at room temperature and in the absence of light, and the isomerized tomato oleoresin was kept for 55 days at room temperature in the absence of light. Total lycopene concentration and lycopene isomer profiles were measured at various time intervals during the storage.

Structure (SMILES)	concentration (% of total isomers) 5-Z (0 days)	concentration (% of total isomers) all E (0 days)	concentration (% of total isomers) x-Z (0 days)	concentration (% of total isomers) 5-Z (1 day)	concentration (% of total isomers) all E (1 day)	concentration (% of total isomers) x-Z (1 day)	concentration (% of total isomers) 5-Z (2 days)	concentration (% of total isomers) all E (2 days)	concentration (% of total isomers) x-Z (2 days)	concentration (% of total isomers) 5-Z (5 days)	concentration (% of total isomers) all E (5 days)	concentration (% of total isomers) x-Z (5 days)	concentration (% of total isomers) 5-Z (12 days)	concentration (% of total isomers) 9-Z (12 days)	concentration (% of total isomers) 13-Z (12 days)	concentration (% of total isomers) all E (12 days)	concentration (% of total isomers) x-Z (12 days)	concentration (% of total isomers) 5-Z (33 days)	concentration (% of total isomers) 9-Z (33 days)	concentration (% of total isomers) 13-Z (33 days)	other results
CC(C)=CCC/C(C)=C/C=C/C(C)=C/C=C/C(C)=C\C=C\C=C(C)\C=C\C=C(C)\C=C\C=C(/C)CCC=C(C)C [13-Z lycopene]	0 % of total isomers	2.4 % of total isomers	1.0 % of total isomers	0 % of total isomers	42.6 % of total isomers	0 % of total isomers	0 % of total isomers	59.8 % of total isomers	1.5 % of total isomers	1.9 % of total isomers	68.9 % of total isomers	4.3 % of total isomers	5.3 % of total isomers	2.6 % of total isomers	20.8 % of total isomers	65.5 % of total isomers	5.8 % of total isomers	11.7 % of total isomers	4.2 % of total isomers	16.9 % of total isomers	fraction of the isomer transformed / converted into other isomers (after 33 day storage in n-hexane at room temperature in the absence of light): more than 80%; concentration (% of total isomers) 9-Z (0 days): 0 % of total isomers; concentration (% of total isomers) 13-Z (0 days): 96.6 % of total isomers; concentration (% of total isomers) 9-Z (1 day): 0.4 % of total isomers; concentration (% of total isomers) 13-Z (1 day): 57.0 % of total isomers; concentration (% of total isomers) 9-Z (2 days): 0 % of total isomers; concentration (% of total isomers) 13-Z (2 days): 38.7 % of total isomers; concentration (% of total isomers) 9-Z (5 days): 1.5 % of total isomers; concentration (% of total isomers) 13-Z (5 days): 23.4 % of total isomers; concentration (% of total isomers) all E (33 days): 57.0 % of total isomers; concentration (% of total isomers) x-Z (33 days): 10.2 % of total isomers
CC(C)=CCC\C(C)=C/C=C/C(C)=C/C=C/C(C)=C/C=C/C=C(C)/C=C/C=C(C)/C=C/C=C(\C)CCC=C(C)C [5-Z lycopene]	95.5 % of total isomers	1.1 % of total isomers	3.4 % of total isomers	84.3 % of total isomers	2.2 % of total isomers	13.5 % of total isomers	76.9 % of total isomers	2.4 % of total isomers	20.6 % of total isomers	68.4 % of total isomers	3.9 % of total isomers	27.7 % of total isomers	65.3 % of total isomers	0.7 % of total isomers	1.7 % of total isomers	5.6 % of total isomers	26.7 % of total isomers	53.5 % of total isomers	2.3 % of total isomers	2.8 % of total isomers	concentration (% of total isomers) all E (33 days): 10.7 % of total isomers; concentration (% of total isomers) x-Z (33 days): 30.7 % of total isomers
CC(C)=CCC/C(C)=C/C=C/C(C)=C\C=C\C(C)=C\C=C\C=C(C)\C=C\C=C(C)\C=C\C=C(/C)CCC=C(C)C [9-Z lycopene]	1.8 % of total isomers	4.4 % of total isomers	0 % of total isomers	2.1 % of total isomers	5.8 % of total isomers	2.8 % of total isomers	11.6 % of total isomers	6.0 % of total isomers	5.9 % of total isomers	1.5 % of total isomers	5.6 % of total isomers	8.6 % of total isomers	2.3 % of total isomers	66.5 % of total isomers	8.2 % of total isomers	7.0 % of total isomers	15.9 % of total isomers	4.1 % of total isomers	56.0 % of total isomers	10.5 % of total isomers	concentration (% of total isomers) 9-Z (0 days): 93.3 % of total isomers; concentration (% of total isomers) 13-Z (0 days): 0.6 % of total isomers; concentration (% of total isomers) 9-Z (1 day): 87.1 % of total isomers; concentration (% of total isomers) 13-Z (1 day): 2.3 % of total isomers; concentration (% of total isomers) 9-Z (2 days): 83.5 % of total isomers; concentration (% of total isomers) 13-Z (2 days): 3.1 % of total isomers; concentration (% of total isomers) 9-Z (5 days): 79.2 % of total isomers; concentration (% of total isomers) 13-Z (5 days): 5.2 % of total isomers; concentration (% of total isomers) all E (33 days): 9.8 % of total isomers; concentration (% of total isomers) x-Z (33 days): 19.7 % of total isomers
CC(C)=CCC/C(C)=C/C=C/C(C)=C/C=C/C(C)=C/C=C/C=C(C)/C=C/C=C(C)/C=C/C=C(\C)CCC=C(C)C [all-E lycopene]	0.5 % of total isomers	97.6 % of total isomers	0.1 % of total isomers	1.2 % of total isomers	86.0 % of total isomers	1.5 % of total isomers	2.6 % of total isomers	78.4 % of total isomers	3.0 % of total isomers	3.8 % of total isomers	69.3 % of total isomers	5.1 % of total isomers	6.4 % of total isomers	2.0 % of total isomers	18.2 % of total isomers	67.8 % of total isomers	5.6 % of total isomers	13.4 % of total isomers	3.8 % of total isomers	15.7 % of total isomers	concentration (% of total isomers) 9-Z (0 days): 0.5 % of total isomers; concentration (% of total isomers) 13-Z (0 days): 1.4 % of total isomers; concentration (% of total isomers) 9-Z (1 day): 1.2 % of total isomers; concentration (% of total isomers) 13-Z (1 day): 10.1 % of total isomers; concentration (% of total isomers) 9-Z (2 days): 1.1 % of total isomers; concentration (% of total isomers) 13-Z (2 days): 15.0 % of total isomers; concentration (% of total isomers) 9-Z (5 days): 2.2 % of total isomers; concentration (% of total isomers) 13-Z (5 days): 19.6 % of total isomers; concentration (% of total isomers) all E (33 days): 58.7 % of total isomers; concentration (% of total isomers) x-Z (33 days): 8.4 % of total isomers
